{"source": "paper PMC11597202", "about": "“Novel Thiazole-Fused [4,5-g] or [5,4-g]Quinazolin-8-ones and Their Quinazoline Analogues: Synthesis and Biological Evaluation” (Pharmaceuticals, 2024)", "key": {"CDK9/CyclinT": {"target": "T1, CDK9/CyclinT (Homo sapiens, UniProt P50750)", "T1 construct": "host or cells: Sf9 insect cells (baculovirus)", "T1 sequence (P50750 whole entry)": "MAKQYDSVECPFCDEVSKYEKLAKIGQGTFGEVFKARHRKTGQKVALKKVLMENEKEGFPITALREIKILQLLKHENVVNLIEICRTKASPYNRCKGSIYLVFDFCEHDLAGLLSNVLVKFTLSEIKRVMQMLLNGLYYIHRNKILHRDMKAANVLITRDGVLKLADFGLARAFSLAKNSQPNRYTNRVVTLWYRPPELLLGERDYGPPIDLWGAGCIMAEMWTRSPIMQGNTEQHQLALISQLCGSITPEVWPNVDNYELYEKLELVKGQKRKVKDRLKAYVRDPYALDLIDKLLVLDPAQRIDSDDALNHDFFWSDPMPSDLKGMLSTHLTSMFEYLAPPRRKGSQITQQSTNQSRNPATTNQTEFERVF", "T1 sequence (O60563 whole entry partner)": "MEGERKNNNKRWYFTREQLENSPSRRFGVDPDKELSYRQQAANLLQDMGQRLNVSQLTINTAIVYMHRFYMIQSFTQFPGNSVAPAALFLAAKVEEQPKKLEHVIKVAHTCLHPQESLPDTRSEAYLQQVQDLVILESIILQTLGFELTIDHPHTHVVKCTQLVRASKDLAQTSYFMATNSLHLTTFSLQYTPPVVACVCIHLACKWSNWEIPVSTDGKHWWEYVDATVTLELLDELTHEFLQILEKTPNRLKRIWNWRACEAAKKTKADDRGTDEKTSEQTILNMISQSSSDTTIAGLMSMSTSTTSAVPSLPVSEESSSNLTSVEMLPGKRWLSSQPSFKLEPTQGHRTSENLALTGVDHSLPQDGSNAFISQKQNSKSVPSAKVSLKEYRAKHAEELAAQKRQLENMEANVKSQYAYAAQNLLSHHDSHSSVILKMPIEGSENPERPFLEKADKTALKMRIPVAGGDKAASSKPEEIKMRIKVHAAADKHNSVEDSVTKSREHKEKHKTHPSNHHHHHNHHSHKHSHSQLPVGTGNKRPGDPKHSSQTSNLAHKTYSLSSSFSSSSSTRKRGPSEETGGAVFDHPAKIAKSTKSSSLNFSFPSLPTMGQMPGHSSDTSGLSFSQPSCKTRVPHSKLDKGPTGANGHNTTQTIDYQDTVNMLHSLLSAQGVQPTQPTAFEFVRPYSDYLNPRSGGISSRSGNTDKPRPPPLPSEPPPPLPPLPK", "experiment": "ADP-Glo kinase inhibition assay, CDK9/CyclinT", "type": "biochemical", "conditions": "percentage of maximum activity of the DMSO control, mean n = 2, 10 µM ATP, read-out: Residual activity CDK9/CyclinT; for remaining activity at 1 µM: 1 μM compound; for remaining activity at 10 µM: 10 μM compound", "method": "Kinase enzymatic activities were assayed in 384-well plates using the ADP-Glo^TM assay kit (Promega, Madison, WI, USA) according to the recommendations of the manufacturer. This luminescent ADP detection assay was described by Zegzouti and co-workers and provides a homogeneous and high-throughput screening method to measure kinase activity by quantifying the amount of ADP produced during a kinase reaction. Briefly, the reactions were carried out in a final volume of 6 µL for 30 min at 30 °C in an appropriate kinase buffer (10 mM MgCl2, 1 mM EGTA, 1 mM DTT, 25 mM Tris-HCl pH 7.5, 50 µg/mL heparin), with peptide or protein as substrate in the presence of 10 µM ATP. Peptide substrates were obtained from ProteoGenix (Schiltigheim, France) or Sigma for Histone H1, Poly (L-glutamic acid–L-tyrosine) sodium salt, Casein and MBP. After that, 6 µL of ADP-Glo^TM Kinase Reagent was added to stop the kinase reaction. After an incubation time of 50 min at room temperature (rt), 12 µL of Kinase Detection Reagent was added for one hour at rt. The transmitted signal was measured using the Envision (PerkinElmer, Waltham, MA, USA) microplate luminometer and expressed as Relative Light Units (RLUs). Kinase activities are expressed as percentages of remaining kinase activities detected after treatment with 1 or 10 µM of the tested compounds. The maximum kinase activity was measured in the absence of inhibitor but with an equivalent dose of DMSO (solvent of the tested compounds).\n3. Kinase inhibition assays\nKinase enzymatic activities were assayed in 384-well plates using the ADP-GloTM assay kit (Promega, Madison, WI) according to the recommendations of the manufacturer. This luminescent ADP detection assay was described by Zegzouti and co-workers and provides a homogeneous and high-throughput screening method to measure kinase activity by quantifying the amount of ADP produced during a kinase reaction. Briefly, the reactions were carried out in a final volume of 6 µl for 30 min at 30°C in appropriate kinase buffer (10 mM MgCl2, 1 mM EGTA, 1 mM DTT, 25 mM Tris-HCl pH 7.5, 50 µg/mL heparin), with peptide or protein as substrate in the presence of 10 µM ATP. Peptide substrates were obtained from ProteoGenix (Schiltigheim, France) or Sigma for Histone H1, Poly (L-glutamic acid – L-tyrosine) sodium salt, Casein and MBP. After that, 6 µL of ADP-GloTM Kinase Reagent was added to stop the kinase reaction. After an incubation time of 50 min at room temperature (rt), 12 µL of Kinase Detection Reagent was added for 1 h at rt. The transmitted signal was measured using the Envision (PerkinElmer, Waltham, MA) microplate luminometer and expressed in Relative Light Unit (RLU). Kinase activities are expressed in percentages of remaining kinase activities detected after treatment with 1 or 10 µM of the tested compounds. The maximal kinase activity is measured in the absence of inhibitor but with an equivalent dose of DMSO (solvent of the tested compounds).\nTable. Human protein kinases tested in the panel: CDK9, HASPIN, PIM1, GSK3b, CK1ε, JAK3, CLK1 […]\nProtein Kinase Enzyme Description Substrate1\n(Family) (Working concentration)\nCDK9/CyclinT Human, recombinant, expressed by Peptide:\n(CMGC) baculovirus in Sf9 insect cells […]\nCLK1 Human, recombinant, expressed by Peptide: […]\n(CMGC) baculovirus in Sf9 insect cells (57.3µM)\nDYRK1A Human, recombinant, expressed by Peptide: […]\n(CMGC) baculovirus in Sf9 insect cells (10.7µM)\nPIM1 Human proto-oncogene, recombinant, Peptide: […]\n(CAMK) expressed in bacteria (630 µM)\nGSK3 Human, recombinant, expressed by Peptide:\n(CMGC) baculovirus in Sf9 insect cells […]pEDEEE 3\nHASPIN Human, kinase domain, amino acids 470 to Histone H3 peptide (1-21):\n(Other) 798, recombinant, expressed in bacteria […] (8µM)\nCK1ε Human, recombinant, expressed by Peptide: […]pAYSITA 2\n(CK1) baculovirus in Sf9 insect cells (170µM)\nJAK3 Human, recombinant, expressed by Peptide: […]\n(TK) baculovirus in Sf9 insect cells (94µM) […]"}, "[1]": {"experiment": "In vitro cytotoxic assay, MCF-7; note: 0.1-25 µM tested", "type": "cell-based", "conditions": "human, MCF-7 cells (breast cancer cell line)", "method": "Skin normal fibroblastic cells were purchased from Lonza (Basel, Switzerland). […] All culture media were supplemented by 10% of FBS, 1% of penicillin–streptomycin and 2 mM glutamine.\nChemicals were solubilized in DMSO at a concentration of 10 mM (stock solution) and diluted in culture medium to the desired final concentrations. […] Cells were plated in 96-well plates (4000 cells/well). Twenty-four hours after seeding, the cells were exposed to chemicals. […] Image acquisition and analysis were performed using a Cellomics ArrayScan VTI/HCS Reader (ThermoScientific, Les Ulis, France). The survival percentages were calculated as the percentage of cell number after compound treatment over cell number after DMSO treatment. The relative IC50 values were calculated using the curve fitting XLfit 5.5.0.5 (idbs) integrated in Microsoft Excel as an add-on.\n4.3.1. Cell culture. Skin normal fibroblastic cells are purchased from Lonza (Basel, Switzerland). Huh7- […]\nfrom ATCC (American Type Culture Collection). […]\nsupplemented by 10% of FBS, 1% of penicillin-streptomycin and 2 mM glutamine.\n4.3.2. Cytotoxic assay. Chemicals were solubilized in DMSO at a concentration of 10 mM (stock solution) and diluted in culture medium to the desired final concentrations. The dose effect cytotoxic assays (IC50 determination) were performed by increasing the concentrations of each chemical (final well […]\nCells were plated in 96-well plates\n(4000 cells/well). Twenty-four hours after seeding, cells were exposed to chemicals. After 48h of treatment, cells were washed in PBS and fixed in cooled 90% ethanol/5% acetic acid for 20 min and the […]\nImage acquisition and analysis were performed using a Cellomics ArrayScan VTI/HCS Reader (ThermoScientific). The survival percentages were calculated as the percentage of cell number after compound treatment over cell number after DMSO treatment. The relative IC50 were calculated using the curve fitting XLfit 5.5.0.5 (idbs) integrated in Microsoft Excel as an add-on. The 4 Parameter Logistic Model or Sigmoidal Dose-Response Model describing the sigmoid-shaped response pattern was used (fit = (A+[(B-A)/(1+[(C/x)^D])]) where fit is the response and X is the tested concentration of the compound. The lower asymptote is A (also referred to as the bottom of the curve or lower plateau or the min) and the upper asymptote is B (also referred to as the top of the curve or upper plateau or the max). The slope of the linear part of the curve is described by the factor D. The parameter C is the concentration corresponding to the response midway between A and B. C is called “relative IC50” because it refers to the maximum response obtained by a […]\nThe results are represented as the mean ± standard error (SE) calculated from at least three independent experiments."}}, "data": [{"compound": "COC(=N)c1nc2ccc3ncn(Cc4ccccc4)c(=O)c3c2s1", "note": "[Compound I, methyl 8-benzyl-9-oxo-8,9-dihydrothiazolo[5,4-f]quinazoline-2-carbimidate, reference compound]", "values": [{"measurement": "remaining activity at 1 µM", "setting": "CDK9/CyclinT", "result": 91, "unit": "%"}, {"measurement": "remaining activity at 10 µM", "setting": "CDK9/CyclinT", "result": 41, "unit": "%"}, {"measurement": "IC50 at 48 h", "setting": "[1]", "result": 17, "unit": "µM"}]}, {"compound": "COC(=N)c1nc2cc3ncn(Cc4ccccc4)c(=O)c3cc2s1", "note": "[Compound 6b, Methyl 7-benzyl-8-oxo-7,8-dihydrothiazolo[5,4-g]quinazoline-2-carbimidate]", "values": [{"measurement": "remaining activity at 1 µM", "setting": "CDK9/CyclinT", "result": 107, "unit": "%"}, {"measurement": "remaining activity at 10 µM", "setting": "CDK9/CyclinT", "result": 104, "unit": "%"}, {"measurement": "IC50 at 48 h", "setting": "[1]", "result": 1, "unit": "µM"}, {"measurement": "melting point", "result": "244 to 245", "unit": "°C"}]}, {"compound": "COC(=N)c1nc2c(ccc3c(=O)n(Cc4ccccc4)cnc32)s1", "note": "[Compound 6c, Methyl 7-benzyl-6-oxo-6,7-dihydrothiazolo[5,4-h]quinazoline-2-carbimidate]", "values": [{"measurement": "remaining activity at 1 µM", "setting": "CDK9/CyclinT", "result": 105, "unit": "%"}, {"measurement": "remaining activity at 10 µM", "setting": "CDK9/CyclinT", "result": 101, "unit": "%"}, {"measurement": "IC50 at 48 h", "setting": "[1]", "result": 7, "unit": "µM"}, {"measurement": "melting point", "result": "213 to 214", "unit": "°C"}]}, {"compound": "COC(=N)c1nc2cc3ncnc(Nc4ccc(OC)cc4F)c3cc2s1", "note": "[Compound 15b, Methyl 8-[(2-fluoro-4-methoxyphenyl)amino]thiazolo[5,4-g]quinazoline-2-carbimidate]", "values": [{"measurement": "remaining activity at 1 µM", "setting": "CDK9/CyclinT", "result": 98, "unit": "%"}, {"measurement": "remaining activity at 10 µM", "setting": "CDK9/CyclinT", "result": 110, "unit": "%"}, {"measurement": "melting point", "result": "239 to 240", "unit": "°C"}]}, {"compound": "COC(=N)c1nc2cc3c(Nc4ccc(OC)cc4F)ncnc3cc2s1", "note": "[Compound 15a, Methyl 8-[(2-fluoro-4-methoxyphenyl)amino]thiazolo[4,5-g]quinazoline-2-carbimidate]", "values": [{"measurement": "remaining activity at 1 µM", "setting": "CDK9/CyclinT", "result": 101, "unit": "%"}, {"measurement": "remaining activity at 10 µM", "setting": "CDK9/CyclinT", "result": 100, "unit": "%"}, {"measurement": "IC50 at 48 h", "setting": "[1]", "result": "> 25", "unit": "µM"}, {"measurement": "melting point", "result": "246 to 247", "unit": "°C"}]}, {"compound": "COC(=N)c1nc2cc3c(=O)n(Cc4ccccc4)cnc3cc2s1", "note": "[Compound 6a, Methyl 7-benzyl-8-oxo-7,8-dihydrothiazolo[4,5-g]quinazoline-2-carbimidate]", "values": [{"measurement": "remaining activity at 1 µM", "setting": "CDK9/CyclinT", "result": 103, "unit": "%"}, {"measurement": "remaining activity at 10 µM", "setting": "CDK9/CyclinT", "result": 101, "unit": "%"}, {"measurement": "IC50 at 48 h", "setting": "[1]", "result": 17, "unit": "µM"}, {"measurement": "melting point", "result": "213 to 214", "unit": "°C"}]}, {"compound": "COC(=N)c1nc2ccc3ncnc(Nc4ccc(OC)cc4F)c3c2s1", "note": "[Compound II, methyl 9-[(2-fluoro-4-methoxyphenyl)amino]thiazolo[5,4-f]quinazoline-2-carbimidate, reference compound]", "values": [{"measurement": "remaining activity at 1 µM", "setting": "CDK9/CyclinT", "result": 86, "unit": "%"}, {"measurement": "remaining activity at 10 µM", "setting": "CDK9/CyclinT", "result": 59, "unit": "%"}, {"measurement": "IC50 at 48 h", "setting": "[1]", "result": 5, "unit": "µM"}]}, {"compound": "COC(=N)c1nc2ccc3c(=O)n(Cc4ccccc4)cnc3c2s1", "note": "[Compound 6d, Methyl 7-benzyl-6-oxo-6,7-dihydrothiazolo[4,5-h]quinazoline-2-carbimidate]", "values": [{"measurement": "remaining activity at 1 µM", "setting": "CDK9/CyclinT", "result": 106, "unit": "%"}, {"measurement": "remaining activity at 10 µM", "setting": "CDK9/CyclinT", "result": 94, "unit": "%"}, {"measurement": "IC50 at 48 h", "setting": "[1]", "result": 8, "unit": "µM"}, {"measurement": "melting point", "result": "205 to 206", "unit": "°C"}]}]}
